{"source": "patent US11603356B2", "about": "“Amorphous form of a complement component C5a receptor” (CHEMOCENTRYX, INC., priority 2019, dated 2023)", "key": {"[1]": {"test": "Stability storage test (25° C./60% RH, 12 months; HPLC, KF, XRPD)", "assay_type": "physicochemical", "details": "for Specified Individual Related Substances (HPLC): RRT1.05", "description": "A sample of amorphous form of Compound 1 was tested by different analytical methods and the data was reported in the “Time Zero” column (Table 3). These analytical methods included: HPLC and Karl Fisher (KF). The sample was placed in double Low-Density Polyethylene (LDPE) bags, sealed with a cable tie, then placed in a High-Density Polyethylene (HDPE) bottle with foil and heat-induction sealed, with 0.5 g desiccant between LDPE bags. The HDPE bottle was stored inside an environment chamber at 25° C. and 60% relative humidity (RH). After 12 months inside the environment chamber, the sample was tested again by the same analytical methods."}, "[2]": {"test": "Solubility in IV formulation saline/PEG400/Tween80", "assay_type": "physicochemical", "description": "Intravenous (IV) formulations of a crystalline form of Compound 1 and the amorphous form of Compound 1 were prepared by contacting the amorphous of crystalline Compound 1 with saline/PEG400/Tween80 (88:10:1). The crystalline form of Compound 1 was prepared as described in Example 1, the amorphous form of Compound was prepared as described in Example 2, Method 1."}, "[3]": {"test": "Kinetic solubility in 0.1 N HCl, FaSSGF and FeSSIF at 37° C.", "assay_type": "physicochemical", "description": "The in vitro solubility of a crystalline form of Compound 1 and the amorphous form of Compound 1 was tested.\nThe amorphous form was prepared as described in Example 2, Method 1, and the crystalline form of Compound 1 was prepared as described in Example 1.\nCrystalline and amorphous forms of Compound 1 were saturated in three different media: 0.1 N HCl solution, Fasted State Simulated Gastric Fluid (FaSSGF), and Fed State Simulated Intestinal Fluid (FeSSIF). The samples were shaken inside a 37° C. water bath at 40 rpm. The concentration of Compound 1 dissolved in these samples was measured by HPLC at four different time points (0.5, 1, 2 and 4 hours)."}, "[4]": {"test": "In vivo rat PK study, oral aqueous liquid suspension formulation", "description": "An in vivo rat PK study was conducted to compare the PK profile and bioavailability of crystalline form against amorphous form of Compound 1 in an aqueous liquid suspension formulation, which contained 0.5% w/v Hydroxypropyl Cellulose (Klucel GF grade) and 0.5% w/v Poloxamer F-68 (BASF Kolliphor P188). Each animal was orally administrated 10 mg/kg of Compound 1 at 5 mL/kg dosing volume (a dosing concentration of 2 mg/mL)."}, "[5]": {"test": "Dynamic vapor sorption (DVS) of the amorphous form", "assay_type": "physicochemical", "description": "To evaluate the hygroscopicity and physical stability of the amorphous form of Compound 1 under different humidity, dynamic vapor sorption (DVS) data was collected at 25° C. after the sample was pre-equilibrated at 0% RH to remove unbounded water. DVS was measured using a VTI SGA-100 Vapor Sorption Analyzer. Sorption and desorption data was collected over a range from 5% to 95% RH at 10% RH increments under a nitrogen purge. The equilibrium criterion used for analysis was less than 0.0100% weight change in 5 minutes with a maximum equilibrium time of 3 hours."}, "[6]": {"details": "oral 10 mg/kg, suspension in 0.5% w/v Klucel GF and 0.5% w/v Poloxamer F-68, 10 mg/kg"}}, "data": [{"smiles": "Cc1ccc(NC(=O)[C@H]2CCCN(C(=O)c3c(C)cccc3F)[C@H]2c2ccc(NC3CCCC3)cc2)cc1C(F)(F)F", "note": "[Amorphous Compound 1, (2R,3S)-2-(4-(cyclopentylamino)phenyl)-1-(2-fluoro-6-methylbenzoyl)-N-(4-methyl-3-(trifluoromethyl)phenyl)piperidine-3-carboxamide]", "values": [{"measurement": "Unspecified Individual Related Substances (HPLC)", "setting": "[1]; RRT0.45, Time Zero", "value": "RRT0.45: <0.05%"}, {"measurement": "Unspecified Individual Related Substances (HPLC)", "setting": "[1]; RRT0.50, Time Zero", "value": "RRT0.50: <0.05%"}, {"measurement": "Unspecified Individual Related Substances (HPLC)", "setting": "[1]; RRT0.90, Time 12 months (25° C./60% RH)", "value": "RRT0.90: 0.20%"}, {"measurement": "Unspecified Individual Related Substances (HPLC)", "setting": "[1]; RRT0.90, Time Zero", "value": "RRT0.90: 0.05%"}, {"measurement": "Unspecified Individual Related Substances (HPLC)", "setting": "[1]; RRT0.96, Time 12 months (25° C./60% RH)", "value": "RRT0.96: <0.05%"}, {"measurement": "Unspecified Individual Related Substances (HPLC)", "setting": "[1]; RRT0.96, Time Zero", "value": "RRT0.96: <0.05%"}, {"measurement": "Specified Individual Related Substances (HPLC)", "setting": "[1]; Time 12 months (25° C./60% RH)", "value": "RRT1.05: <0.05%"}, {"measurement": "Specified Individual Related Substances (HPLC)", "setting": "[1]; Time Zero", "value": "RRT1.05: 0.08%"}, {"measurement": "Unspecified Individual Related Substances (HPLC)", "setting": "[1]; RRT1.06, Time 12 months (25° C./60% RH)", "value": "RRT1.06: 0.07%"}, {"measurement": "Unspecified Individual Related Substances (HPLC)", "setting": "[1]; RRT1.14, Time 12 months (25° C./60% RH)", "value": "RRT1.14: <0.05%"}, {"measurement": "Unspecified Individual Related Substances (HPLC)", "setting": "[1]; RRT1.14, Time Zero", "value": "RRT1.14: 0.05%"}, {"measurement": "Unspecified Individual Related Substances (HPLC)", "setting": "[1]; RRT1.16, Time Zero", "value": "RRT1.16: <0.05%"}, {"measurement": "Unspecified Individual Related Substances (HPLC)", "setting": "[1]; RRT1.20, Time Zero", "value": "RRT1.20: 0.22%"}, {"measurement": "Unspecified Individual Related Substances (HPLC)", "setting": "[1]; RRT1.21, Time Zero", "value": "RRT1.21: 0.06%"}, {"measurement": "Unspecified Individual Related Substances (HPLC)", "setting": "[1]; RRT1.22, Time Zero", "value": "RRT1.22: <0.05%"}, {"measurement": "Appearance", "setting": "[1]; Time 12 months (25° C./60% RH)", "value": "Off-white Powder"}, {"measurement": "Potency (HPLC)", "setting": "[1]; Time 12 months (25° C./60% RH)", "value": 98.9, "unit": "% w/w"}, {"measurement": "Total Impurities and Related Substances (HPLC)", "setting": "[1]; Time 12 months (25° C./60% RH)", "value": 0.20, "unit": "%"}, {"measurement": "Water Content (KF)", "setting": "[1]; Time 12 months (25° C./60% RH)", "value": 0.31, "unit": "%"}, {"measurement": "enantiomeric impurity", "setting": "[1]; Time 12 months (25° C./60% RH)", "value": 0.0, "unit": "%"}, {"measurement": "Appearance", "setting": "[1]; Time Zero", "value": "Off-white Powder"}, {"measurement": "Potency (HPLC)", "setting": "[1]; Time Zero", "value": 99.5, "unit": "% w/w"}, {"measurement": "Total Impurities and Related Substances (HPLC)", "setting": "[1]; Time Zero", "value": 0.38, "unit": "%"}, {"measurement": "Water Content (KF)", "setting": "[1]; Time Zero", "value": 0.33, "unit": "%"}, {"measurement": "enantiomeric impurity", "setting": "[1]; Time Zero", "value": 0.0, "unit": "%"}, {"measurement": "aqueous solubility in an IV formulation compared to the crystalline form", "setting": "[2]; particularly at early time points", "value": "improved the aqueous solubility"}, {"measurement": "solubility at 8 h", "setting": "[2]; saline/PEG400/Tween80 (88:10:1) IV formulation, aqueous with cosolvent or surfactant or cyclodextrin, thermodynamic from solid, saline/PEG400/Tween80 (88:10:1), 8 Hr.", "value": 35.6, "unit": "µg/mL"}, {"measurement": "solubility at 24 h", "setting": "[2]; saline/PEG400/Tween80 (88:10:1) IV formulation, aqueous with cosolvent or surfactant or cyclodextrin, thermodynamic from solid, saline/PEG400/Tween80 (88:10:1), 24 Hr.", "value": 28.9, "unit": "µg/mL"}, {"measurement": "solubility at 48 h", "setting": "[2]; saline/PEG400/Tween80 (88:10:1) IV formulation, aqueous with cosolvent or surfactant or cyclodextrin, thermodynamic from solid, saline/PEG400/Tween80 (88:10:1), 48 Hr.", "value": 26.9, "unit": "µg/mL"}, {"measurement": "solubility at 96 h", "setting": "[2]; saline/PEG400/Tween80 (88:10:1) IV formulation, aqueous with cosolvent or surfactant or cyclodextrin, thermodynamic from solid, saline/PEG400/Tween80 (88:10:1), 96 Hr.", "value": 26.3, "unit": "µg/mL"}, {"measurement": "Solubility in IV Formulation", "setting": "[2]; saline/PEG400/Tween80 (88:10:1), 0.5 Hr.", "value": 140.0, "unit": "µg/mL"}, {"measurement": "Solubility in IV Formulation", "setting": "[2]; saline/PEG400/Tween80 (88:10:1), 1 Hr.", "value": 150.6, "unit": "µg/mL"}, {"measurement": "Solubility in IV Formulation", "setting": "[2]; saline/PEG400/Tween80 (88:10:1), 2 Hr.", "value": 96.1, "unit": "µg/mL"}, {"measurement": "Solubility in IV Formulation", "setting": "[2]; saline/PEG400/Tween80 (88:10:1), 4 Hr.", "value": 52.8, "unit": "µg/mL"}, {"measurement": "CCX168 Solubility at 37° C.", "setting": "[3]; 0.1N HCl (pH 1.06), 0.5 Hr.", "value": 47.5, "unit": "µg/mL"}, {"measurement": "CCX168 Solubility at 37° C.", "setting": "[3]; 0.1N HCl (pH 1.06), 1 Hr.", "value": 54.0, "unit": "µg/mL"}, {"measurement": "CCX168 Solubility at 37° C.", "setting": "[3]; 0.1N HCl (pH 1.06), 2 Hr.", "value": 74.7, "unit": "µg/mL"}, {"measurement": "CCX168 Solubility at 37° C.", "setting": "[3]; 0.1N HCl (pH 1.06), 4 Hr.", "value": 61.7, "unit": "µg/mL"}, {"measurement": "CCX168 Solubility at 37° C.", "setting": "[3]; FaSSGF (pH 1.64), 0.5 Hr.", "value": 9.3, "unit": "µg/mL"}, {"measurement": "CCX168 Solubility at 37° C.", "setting": "[3]; FaSSGF (pH 1.64), 1 Hr.", "value": 7.8, "unit": "µg/mL"}, {"measurement": "CCX168 Solubility at 37° C.", "setting": "[3]; FaSSGF (pH 1.64), 2 Hr.", "value": "BQL (BQL = Less than 3.1 μg/mL)"}, {"measurement": "CCX168 Solubility at 37° C.", "setting": "[3]; FaSSGF (pH 1.64), 4 Hr.", "value": "ND (ND = Not Detected)"}, {"measurement": "CCX168 Solubility at 37° C.", "setting": "[3]; FeSSIF (pH 4.90), 0.5 Hr.", "value": 6.0, "unit": "µg/mL"}, {"measurement": "CCX168 Solubility at 37° C.", "setting": "[3]; FeSSIF (pH 4.90), 1 Hr.", "value": 9.9, "unit": "µg/mL"}, {"measurement": "CCX168 Solubility at 37° C.", "setting": "[3]; FeSSIF (pH 4.90), 2 Hr.", "value": 9.0, "unit": "µg/mL"}, {"measurement": "CCX168 Solubility at 37° C.", "setting": "[3]; FeSSIF (pH 4.90), 4 Hr.", "value": 7.4, "unit": "µg/mL"}, {"measurement": "AUC(0-inf)", "setting": "[4]; in vivo, oral 10 mg/kg, suspension in 0.5% w/v Klucel GF and 0.5% w/v Poloxamer F-68", "value": 2470, "unit": "ng·h/mL"}, {"measurement": "AUC0-t", "setting": "[4]; in vivo, oral 10 mg/kg, suspension in 0.5% w/v Klucel GF and 0.5% w/v Poloxamer F-68, read-out: AUC0-t", "value": 2410, "unit": "ng·h/mL"}, {"measurement": "Cmax", "setting": "[4]; in vivo, oral 10 mg/kg, suspension in 0.5% w/v Klucel GF and 0.5% w/v Poloxamer F-68, read-out: Cmax", "value": 388, "unit": "ng/mL"}, {"measurement": "Cmax and AUC compared to the formulation containing crystalline form", "setting": "[4]; oral 10 mg/kg suspension", "value": "significant increase in Cmax and AUC"}, {"measurement": "MRT", "setting": "[4]; [6]", "value": 5.6, "unit": "h"}, {"measurement": "Tmax", "setting": "[4]; [6]", "value": 2, "unit": "h"}, {"measurement": "t1/2", "setting": "[4]; [6]", "value": 4.7, "unit": "h"}, {"measurement": "hygroscopicity", "setting": "[5]; DVS, 25° C.", "value": "low hygroscopicity"}, {"measurement": "hysteresis between adsorption and desorption (DVS plot)", "setting": "[5]; DVS, 25° C.", "value": "no hysteresis"}, {"measurement": "form change by XRPD before and after DVS test", "setting": "[5]; XRPD, FIG. 7", "value": "no form change"}, {"measurement": "weight gain after dynamic vapor sorption cycle", "setting": "[5]; about 0% RH to about 65% RH at 25° C.", "value": "about 0.31%"}]}]}
